{"source": "patent US11642344B2", "about": "“Cholesteryl ester transfer protein (CETP) inhibitor and pharmaceutical compositions comprising said inhibitor for use in the treatment or prevention of cardiovascular diseases” (NewAmsterdam Pharma B.V., priority 2014, dated 2023)", "key": {"CETP [1]": {"biological_target": "T1, CETP (Homo sapiens, UniProt P11597)", "T1 construct": "from tissue; host or cells: plasma of Caucasian male subjects dosed with Compound A or placebo", "T1 sequence (P11597 18-493)": "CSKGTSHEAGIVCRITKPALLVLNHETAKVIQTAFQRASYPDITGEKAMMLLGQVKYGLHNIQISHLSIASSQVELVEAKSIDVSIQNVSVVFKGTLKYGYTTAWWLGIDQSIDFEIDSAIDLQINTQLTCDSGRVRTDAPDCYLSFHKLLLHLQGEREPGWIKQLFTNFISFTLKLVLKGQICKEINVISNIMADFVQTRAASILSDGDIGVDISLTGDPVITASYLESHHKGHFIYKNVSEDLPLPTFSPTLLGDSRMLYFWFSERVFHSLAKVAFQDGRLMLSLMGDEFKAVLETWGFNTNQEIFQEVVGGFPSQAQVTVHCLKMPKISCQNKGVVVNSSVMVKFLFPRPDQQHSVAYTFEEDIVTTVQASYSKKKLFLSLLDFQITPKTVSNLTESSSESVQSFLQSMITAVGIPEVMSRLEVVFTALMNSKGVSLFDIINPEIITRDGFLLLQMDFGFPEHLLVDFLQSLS", "test": "In vitro CETP assay: 3H-labeled CE transfer from HDL to VLDL/LDL in human plasma", "format": "biochemical", "conditions": "24 h pre-incubation at 37° C.", "procedure": "Human blood was obtained from healthy male volunteers using 0.1% EDTA as an anticoagulant, and centrifuged at 3,000 rpm for 15 minutes at 4° C. Human plasma was pooled, and then used for the preparation of ^3H-labeled HDL or stored at −80° C. for CETP assay until use. The ^3H-labeled HDL was prepared with human plasma as described by Glenn and Melton (Methods in enzymology. 263; 339-351, 1996). The specific gravity of plasma was measured by a hydrometer, and the density was adjusted to 1.125 g/mL by adding solid KBr. After centrifugation at 100,000 rpm for 4 hours at 12° C. (rotor: 100.4, Optima TLX, Beckman), d>1.125 g/mL fraction was dialyzed against 4 L of Tris-saline-EDTA buffer (TSE; 50 mmol/L Tris, 150 mmol/L NaCl, 2 mmol/L EDTA, pH7.4) for 18 hours at 4° C. [1,2-^3H(N)]-Cholesterol (37 MBq/mL) was added to the dialyzed plasma fraction at the amount of 2 μCi/mL. The tube was tightly sealed under N2 gas stream and incubated at 37° C. for 18 hours with gently stirring to allow esterification of radio-labeled cholesterol by endogenous LCAT. The incubated plasma fraction was adjusted to d=1.21 g/mL with solid KBr, and centrifuged at 100,000 rpm, 12° C. for 5 hours. ^3H-labeled HDL fraction was dialyzed against 2 L of TSE at 4° C. for 18 hours. The radioactivity of ^3H-labeled HDL was counted in a liquid scintillation counter. ^3H-labeled HDL was stored at 4° C. until use.\nCETP activity was determined as the rate of ^3H-labeled CE transfer from donor HDL to acceptor VLDL/LDL. Human plasma (94 μL) was pre-incubated with compounds dissolved in DMSO (1 μL) 24 hours at 37° C., and then incubated for 4 hours at 4° C. or 37° C. with 5 μL of ^3H-labeled HDL. One hundred μL of phosphotungstate/MgCl2 reagent (Wako pure chemical) were added to precipitate apoB-containing lipoproteins. After centrifugation at 3,000 rpm for 10 minutes at room temperature, the radioactivity of the supernatant was counted in a liquid scintillation counter. […] The concentration achieving 50% inhibition of CETP activity (IC50) was estimated."}, "CETP [2]": {"test_system": "CETP", "test": "Ex vivo serum CETP activity after oral administration to hamsters", "set-up": "species or system Syrian Golden hamsters", "conditions": "3 mg/kg oral, suspension in 0.5% CMC, serum 3 hours after administration", "procedure": "Syrian Golden hamsters were used for the experiment after 1-week acclimatization. After an overnight fast, animals were orally given the compound suspension in 0.5% sodium carboxymethylcellulose in a volume of 10 mL/kg. Under deep anesthesia with ether, blood was collected from the abdominal aorta 3 hours after the administration. For preparation of serum, the collected blood was transferred to a plastic tube containing a clot activator, left still for 15 minutes at room temperature and centrifuged. Serum CETP activities were determined immediately.\nNinety-five μL serum were added to 5 μL of […] sodium phosphate buffered saline (pH 7.0) containing 1.5 mM 5,5′-dithio-bis(2-nitrobenzoic acid) in two 96-well V-bottom plates. One plate was incubated at 4° C. and the other was incubated at 37° C. After 18 hours of incubation, each sample was mixed with 100 μL of reagent for precipitation of apolipoprotein B-containing lipoproteins (phosphotungstate/MgCl2 reagent, Wako pure chemical), left still for 10 minutes at room temperature and centrifuged. Total cholesterol (TC) and free cholesterol (FC) in supernatant were measured using commercial kits (Cholesterol E-test wako, and Free Cholesterol E-test wako; Wako pure chemical). Cholesteryl ester (CE) was calculated by subtracting FC from TC. CETP activity was determined by the following formula: CETP activity=[CETP transfer]*/[CE value in 4° C. incubation sample] *CETP transfer=[CE value in 4° C. incubation sample]−[CE value in 37° C. incubation sample] (c) Results"}}, "data": [{"compound": "CCOC(=O)N1c2ccc(C(F)(F)F)cc2[C@@H](N(Cc2cc(C(F)(F)F)cc(C(F)(F)F)c2)c2ncc(OCCCC(=O)O)cn2)C[C@H]1CC", "note": "[Compound A, {4-[(2-{[3,5-bis(trifluoromethyl)benzyl][(2R,4S)-1-(ethoxycarbonyl)-2-ethyl-6-(trifluoromethyl)-1,2,3,4-tetrahydroquinolin-4-yl]amino}pyrimidin-5-yl)oxy]butanoic acid}]", "values": [{"measurement": "IC50", "setting": "CETP [1]", "value": 0.064, "unit": "µM"}, {"measurement": "ex vivo (% inhibition) 3 mg/kg (CMC)", "setting": "CETP [2]", "value": 79.2, "unit": "%"}]}]}
